{
  "source": "ChEMBL document CHEMBL4477252",
  "about": "“Optimization of microtubule affinity regulating kinase (MARK) inhibitors with improved physical properties” (Bioorg Med Chem Lett, 2016)",
  "key": {"[1]": {"molecular_target": "Dual specificity tyrosine-phosphorylation-regulated kinase 1A (Homo sapiens, UniProt Q13627)", "assay": "Inhibition of full-length recombinant human GST-tagged DYRK1A expressed in baculovirus expression system by Z'-LYTE assay"}, "[2]": {"molecular_target": "T1, Serine/threonine-protein kinase Chk1 (Homo sapiens, UniProt O14757)", "T1 sequence (O14757 whole entry)": "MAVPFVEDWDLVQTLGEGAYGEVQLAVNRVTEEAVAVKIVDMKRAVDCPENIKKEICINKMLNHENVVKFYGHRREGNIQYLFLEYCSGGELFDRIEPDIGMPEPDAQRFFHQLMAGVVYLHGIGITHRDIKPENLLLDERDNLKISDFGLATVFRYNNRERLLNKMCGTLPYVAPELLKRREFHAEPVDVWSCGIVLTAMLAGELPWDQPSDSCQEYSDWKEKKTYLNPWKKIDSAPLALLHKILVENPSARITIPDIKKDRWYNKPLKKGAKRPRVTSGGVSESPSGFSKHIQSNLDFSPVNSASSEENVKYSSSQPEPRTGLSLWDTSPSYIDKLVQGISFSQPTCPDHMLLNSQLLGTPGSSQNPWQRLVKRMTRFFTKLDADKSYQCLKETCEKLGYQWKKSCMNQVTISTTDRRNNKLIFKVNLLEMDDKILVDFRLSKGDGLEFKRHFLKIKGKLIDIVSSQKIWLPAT", "assay": "Inhibition of full-length recombinant human His-tagged CHEK1 expressed in baculovirus expression system by Z'-LYTE assay"}, "Aurora kinase B": {"molecular_target": "Aurora kinase B (Homo sapiens, UniProt Q96GD4)", "assay": "Inhibition of full-length recombinant human His-tagged AURKB expressed in baculovirus expression system by LanthaScreen assay"}, "[3]": {"molecular_target": "Serine/threonine-protein kinase B-raf (Homo sapiens, UniProt P15056)", "sequence (P15056 whole entry)": "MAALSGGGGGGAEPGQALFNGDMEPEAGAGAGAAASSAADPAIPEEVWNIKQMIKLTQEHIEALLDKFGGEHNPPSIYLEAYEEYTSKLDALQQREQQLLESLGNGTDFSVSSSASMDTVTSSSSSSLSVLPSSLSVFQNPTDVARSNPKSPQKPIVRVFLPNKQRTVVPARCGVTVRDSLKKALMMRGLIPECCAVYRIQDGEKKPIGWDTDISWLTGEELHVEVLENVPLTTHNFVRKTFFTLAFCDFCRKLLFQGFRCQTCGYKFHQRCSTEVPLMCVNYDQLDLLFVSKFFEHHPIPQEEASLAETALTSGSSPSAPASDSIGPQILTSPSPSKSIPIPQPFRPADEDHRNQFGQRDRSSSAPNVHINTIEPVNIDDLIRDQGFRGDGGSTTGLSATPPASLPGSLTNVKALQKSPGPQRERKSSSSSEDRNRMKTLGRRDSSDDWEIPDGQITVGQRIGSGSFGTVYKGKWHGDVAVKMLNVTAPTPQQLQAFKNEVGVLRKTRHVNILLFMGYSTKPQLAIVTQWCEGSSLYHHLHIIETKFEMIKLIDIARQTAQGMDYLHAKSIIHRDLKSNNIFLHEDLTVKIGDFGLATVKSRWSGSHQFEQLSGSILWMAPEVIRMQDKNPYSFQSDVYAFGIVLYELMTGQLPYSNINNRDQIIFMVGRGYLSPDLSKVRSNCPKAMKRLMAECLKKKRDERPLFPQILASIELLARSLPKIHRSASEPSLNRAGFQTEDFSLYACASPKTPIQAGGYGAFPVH", "assay": "Inhibition of full-length recombinant human GST-tagged BRAF expressed in baculovirus expression system by Z'-LYTE assay"}, "[4]": {"molecular_target": "Serine/threonine-protein kinase N1 (Homo sapiens, UniProt Q16512)", "assay": "Inhibition of full-length recombinant human GST-tagged PKN1 expressed in baculovirus expression system by Z'-LYTE assay"}, "[5]": {"molecular_target": "AMP-activated protein kinase (AMPK) alpha-1/beta-1/gamma-1 (Homo sapiens, UniProt P54619+Q13131+Q9Y478)", "sequence (P54619 whole entry)": "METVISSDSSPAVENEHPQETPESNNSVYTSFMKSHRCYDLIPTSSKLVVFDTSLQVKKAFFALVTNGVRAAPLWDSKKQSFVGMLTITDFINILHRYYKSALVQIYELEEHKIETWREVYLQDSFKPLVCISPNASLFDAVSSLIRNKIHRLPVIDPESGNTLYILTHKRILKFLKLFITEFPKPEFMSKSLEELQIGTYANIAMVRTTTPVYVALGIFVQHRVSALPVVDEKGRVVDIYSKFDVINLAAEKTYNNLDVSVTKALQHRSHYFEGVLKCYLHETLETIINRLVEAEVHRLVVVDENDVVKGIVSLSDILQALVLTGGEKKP", "sequence (Q9Y478 whole entry)": "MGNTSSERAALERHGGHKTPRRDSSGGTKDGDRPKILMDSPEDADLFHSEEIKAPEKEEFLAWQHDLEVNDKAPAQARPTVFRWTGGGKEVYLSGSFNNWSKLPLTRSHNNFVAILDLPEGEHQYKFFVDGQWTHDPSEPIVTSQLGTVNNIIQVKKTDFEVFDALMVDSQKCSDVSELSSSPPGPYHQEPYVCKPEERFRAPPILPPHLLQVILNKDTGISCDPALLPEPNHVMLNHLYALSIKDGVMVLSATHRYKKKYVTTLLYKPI", "sequence (Q13131 whole entry)": "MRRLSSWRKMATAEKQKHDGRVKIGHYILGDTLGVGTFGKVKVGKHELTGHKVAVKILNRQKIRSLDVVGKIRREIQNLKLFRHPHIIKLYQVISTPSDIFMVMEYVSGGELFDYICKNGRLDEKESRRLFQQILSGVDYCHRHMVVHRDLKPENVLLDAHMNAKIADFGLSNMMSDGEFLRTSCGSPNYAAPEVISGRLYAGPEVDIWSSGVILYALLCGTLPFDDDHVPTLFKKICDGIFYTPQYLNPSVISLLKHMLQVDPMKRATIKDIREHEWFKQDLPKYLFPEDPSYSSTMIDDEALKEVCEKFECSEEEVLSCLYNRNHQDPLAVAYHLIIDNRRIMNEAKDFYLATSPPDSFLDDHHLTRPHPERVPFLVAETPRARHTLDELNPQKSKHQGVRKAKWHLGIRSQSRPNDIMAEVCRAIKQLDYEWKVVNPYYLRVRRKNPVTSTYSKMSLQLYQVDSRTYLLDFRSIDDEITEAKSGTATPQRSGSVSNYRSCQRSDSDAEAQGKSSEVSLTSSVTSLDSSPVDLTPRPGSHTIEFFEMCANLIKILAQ", "assay": "Inhibition of full-length recombinant human GST and His-tagged AMPK alpha1/beta1/gamma1 expressed in baculovirus expression system by LanthaScreen assay"}, "[6]": {"molecular_target": "Serine/threonine-protein kinase pim-1 (Homo sapiens, UniProt P11309)", "sequence (P11309 whole entry)": "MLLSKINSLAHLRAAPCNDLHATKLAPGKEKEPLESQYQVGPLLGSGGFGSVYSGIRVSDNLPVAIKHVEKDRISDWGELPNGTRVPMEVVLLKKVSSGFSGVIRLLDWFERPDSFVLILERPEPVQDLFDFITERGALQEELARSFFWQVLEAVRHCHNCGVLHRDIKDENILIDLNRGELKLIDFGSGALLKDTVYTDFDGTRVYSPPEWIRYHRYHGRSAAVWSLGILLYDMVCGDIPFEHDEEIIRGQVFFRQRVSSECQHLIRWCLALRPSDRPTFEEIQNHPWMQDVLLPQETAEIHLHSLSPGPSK", "assay": "Inhibition of full-length recombinant human His-tagged PIM1 expressed in baculovirus expression system by Z'-LYTE assay"}, "[7]": {"molecular_target": "Leucine-rich repeat serine/threonine-protein kinase 2 (Homo sapiens, UniProt Q5S007)", "assay": "Inhibition of recombinant human GST-tagged LRRK2 catalytic domain expressed in baculovirus expression system by Adapta assay"}, "[8]": {"molecular_target": "Dual specificity mitogen-activated protein kinase kinase 1 (Homo sapiens, UniProt Q02750)", "sequence (Q02750 whole entry)": "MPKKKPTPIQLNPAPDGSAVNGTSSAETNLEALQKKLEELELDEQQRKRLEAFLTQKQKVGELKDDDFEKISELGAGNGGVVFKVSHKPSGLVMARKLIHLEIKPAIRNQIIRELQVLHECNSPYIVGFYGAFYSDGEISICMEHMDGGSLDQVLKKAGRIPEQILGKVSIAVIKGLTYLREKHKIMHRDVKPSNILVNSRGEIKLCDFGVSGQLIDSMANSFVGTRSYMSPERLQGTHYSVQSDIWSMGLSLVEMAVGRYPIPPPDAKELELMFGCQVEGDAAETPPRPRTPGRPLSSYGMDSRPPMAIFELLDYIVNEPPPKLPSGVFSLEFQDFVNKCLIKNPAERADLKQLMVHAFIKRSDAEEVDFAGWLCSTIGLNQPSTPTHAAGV", "assay": "Inhibition of full-length recombinant human His-tagged MAP2K1 expressed in baculovirus expression system by LanthaScreen assay"}, "[9]": {"molecular_target": "Mitogen-activated protein kinase 14 (Homo sapiens, UniProt Q16539)", "sequence (Q16539 whole entry)": "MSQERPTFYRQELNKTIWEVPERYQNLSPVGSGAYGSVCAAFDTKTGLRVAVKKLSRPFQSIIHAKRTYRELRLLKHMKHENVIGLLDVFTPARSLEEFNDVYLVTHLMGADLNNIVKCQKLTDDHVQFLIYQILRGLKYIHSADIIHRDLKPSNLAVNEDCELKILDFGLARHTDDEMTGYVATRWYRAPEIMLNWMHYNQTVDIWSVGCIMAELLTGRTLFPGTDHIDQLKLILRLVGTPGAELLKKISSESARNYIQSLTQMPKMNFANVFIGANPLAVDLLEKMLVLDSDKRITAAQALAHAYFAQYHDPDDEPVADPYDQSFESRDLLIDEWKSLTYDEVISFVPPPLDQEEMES", "assay": "Inhibition of full-length recombinant human GST-tagged MAPK14 alpha expressed in Escherichia coli by Z'-LYTE assay"}, "SRSF protein kinase 1": {"molecular_target": "SRSF protein kinase 1 (Homo sapiens, UniProt Q96SB4)", "sequence (Q96SB4 whole entry)": "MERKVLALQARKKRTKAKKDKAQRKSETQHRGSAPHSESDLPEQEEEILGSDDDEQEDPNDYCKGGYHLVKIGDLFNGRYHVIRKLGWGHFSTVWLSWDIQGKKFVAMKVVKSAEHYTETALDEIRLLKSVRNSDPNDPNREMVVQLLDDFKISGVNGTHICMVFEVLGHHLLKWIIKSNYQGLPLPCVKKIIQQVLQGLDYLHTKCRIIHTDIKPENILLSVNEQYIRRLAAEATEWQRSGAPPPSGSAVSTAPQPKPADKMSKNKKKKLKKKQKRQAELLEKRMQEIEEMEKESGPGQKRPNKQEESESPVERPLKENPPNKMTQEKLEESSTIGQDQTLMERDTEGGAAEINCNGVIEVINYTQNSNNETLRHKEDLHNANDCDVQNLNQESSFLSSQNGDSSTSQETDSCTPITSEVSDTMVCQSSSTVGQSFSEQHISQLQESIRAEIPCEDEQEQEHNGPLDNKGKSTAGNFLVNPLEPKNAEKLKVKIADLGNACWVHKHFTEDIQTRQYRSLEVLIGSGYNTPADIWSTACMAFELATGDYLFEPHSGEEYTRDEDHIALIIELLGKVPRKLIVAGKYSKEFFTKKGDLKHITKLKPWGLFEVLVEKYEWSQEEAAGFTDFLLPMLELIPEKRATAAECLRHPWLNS", "assay": "Inhibition of full-length recombinant human His-tagged SRPK1 expressed in baculovirus expression system by Z'-LYTE assay"}, "[10]": {"molecular_target": "T2, Protein kinase C zeta type (Homo sapiens, UniProt Q05513)", "T2 sequence (Q05513 whole entry)": "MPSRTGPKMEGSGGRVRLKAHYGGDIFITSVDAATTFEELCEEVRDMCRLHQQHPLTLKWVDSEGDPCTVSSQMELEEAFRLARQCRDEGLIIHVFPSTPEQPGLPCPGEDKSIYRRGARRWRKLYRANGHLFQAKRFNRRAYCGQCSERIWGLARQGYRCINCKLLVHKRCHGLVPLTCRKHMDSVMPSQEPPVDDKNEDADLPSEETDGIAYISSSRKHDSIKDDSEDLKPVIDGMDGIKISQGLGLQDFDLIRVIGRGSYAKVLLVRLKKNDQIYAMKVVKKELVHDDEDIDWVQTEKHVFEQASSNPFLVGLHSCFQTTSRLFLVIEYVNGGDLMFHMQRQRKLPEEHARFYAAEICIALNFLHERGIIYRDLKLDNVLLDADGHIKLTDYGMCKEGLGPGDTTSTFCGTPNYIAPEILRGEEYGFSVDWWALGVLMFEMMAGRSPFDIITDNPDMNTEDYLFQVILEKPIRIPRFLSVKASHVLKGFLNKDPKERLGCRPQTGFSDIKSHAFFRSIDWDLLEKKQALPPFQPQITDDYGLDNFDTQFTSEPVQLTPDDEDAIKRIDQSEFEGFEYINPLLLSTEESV", "assay": "Inhibition of full-length recombinant human PRKCZ expressed in baculovirus expression system by Z'-LYTE assay"}, "[11]": {"molecular_target": "G protein-coupled receptor kinase 4 (Homo sapiens, UniProt P32298)", "assay": "Inhibition of full-length recombinant human GST-tagged GRK4 expressed in baculovirus expression system by Z'-LYTE assay"}, "[12]": {"molecular_target": "Ribosomal protein S6 kinase beta-1 (Homo sapiens, UniProt P23443)", "sequence (P23443 whole entry, the tested form may be a part)": "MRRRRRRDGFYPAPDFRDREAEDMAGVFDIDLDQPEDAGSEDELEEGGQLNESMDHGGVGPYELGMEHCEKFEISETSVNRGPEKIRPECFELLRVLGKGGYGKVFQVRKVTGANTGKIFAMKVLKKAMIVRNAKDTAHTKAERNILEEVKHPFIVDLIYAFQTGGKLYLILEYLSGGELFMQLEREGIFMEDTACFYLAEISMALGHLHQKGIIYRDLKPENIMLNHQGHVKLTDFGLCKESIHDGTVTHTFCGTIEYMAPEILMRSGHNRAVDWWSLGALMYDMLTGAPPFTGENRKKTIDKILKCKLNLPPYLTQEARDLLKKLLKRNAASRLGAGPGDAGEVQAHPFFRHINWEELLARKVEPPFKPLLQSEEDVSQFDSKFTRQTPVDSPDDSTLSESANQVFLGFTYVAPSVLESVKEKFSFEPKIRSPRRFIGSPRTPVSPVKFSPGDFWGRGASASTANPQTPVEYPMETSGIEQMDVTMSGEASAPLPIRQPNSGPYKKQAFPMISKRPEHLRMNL", "assay": "Inhibition of full-length recombinant human GST-tagged RPS6KB1 catalytic domain expressed in baculovirus expression system by Z'-LYTE assay"}, "[13]": {"molecular_target": "Proto-oncogene tyrosine-protein kinase Src (Homo sapiens, UniProt P12931)", "sequence (P12931 2-536 limits assumed)": "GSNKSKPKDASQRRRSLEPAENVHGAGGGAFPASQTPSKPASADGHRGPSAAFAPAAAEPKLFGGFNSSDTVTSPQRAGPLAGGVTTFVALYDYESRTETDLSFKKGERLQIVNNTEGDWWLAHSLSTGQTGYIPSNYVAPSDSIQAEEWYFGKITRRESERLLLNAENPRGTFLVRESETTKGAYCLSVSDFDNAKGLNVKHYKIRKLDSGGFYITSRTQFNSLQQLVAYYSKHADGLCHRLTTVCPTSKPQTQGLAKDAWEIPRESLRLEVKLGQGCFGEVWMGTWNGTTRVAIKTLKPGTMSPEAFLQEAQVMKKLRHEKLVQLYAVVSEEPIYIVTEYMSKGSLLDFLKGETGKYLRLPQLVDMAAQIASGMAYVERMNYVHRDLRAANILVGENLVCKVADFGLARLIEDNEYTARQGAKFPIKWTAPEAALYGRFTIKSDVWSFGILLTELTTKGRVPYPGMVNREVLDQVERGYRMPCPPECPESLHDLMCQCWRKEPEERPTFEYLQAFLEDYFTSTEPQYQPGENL", "assay": "Inhibition of full-length recombinant human His-tagged SRC expressed in baculovirus expression system by Adapta assay"}},
  "data": [
    {"smiles": "Cn1cc(-c2cnc3c(-c4csc(C(=O)NCC(F)(F)F)c4)cnn3c2)cn1", "values": [
      {"measurement": "IC50", "setting": "[1]", "value": 11, "unit": "nM"},
      {"measurement": "IC50", "setting": "[2]", "value": 190, "unit": "nM"},
      {"measurement": "IC50", "setting": "Aurora kinase B", "value": "< 10", "unit": "nM"},
      {"measurement": "IC50", "setting": "[3]", "value": 1500, "unit": "nM"},
      {"measurement": "IC50", "setting": "[4]", "value": 18000, "unit": "nM"},
      {"measurement": "IC50", "setting": "[5]", "value": 26, "unit": "nM"},
      {"measurement": "IC50", "setting": "[6]", "value": 9900, "unit": "nM"},
      {"measurement": "IC50", "setting": "[7]", "value": "< 10", "unit": "nM"},
      {"measurement": "IC50", "setting": "[8]", "value": 12000, "unit": "nM"},
      {"measurement": "IC50", "setting": "[9]", "value": 36000, "unit": "nM"},
      {"measurement": "IC50", "setting": "SRSF protein kinase 1", "value": 28000, "unit": "nM"},
      {"measurement": "IC50", "setting": "[10]", "value": 1800, "unit": "nM"},
      {"measurement": "IC50", "setting": "[11]", "value": 19000, "unit": "nM"},
      {"measurement": "IC50", "setting": "[12]", "value": 110, "unit": "nM"},
      {"measurement": "IC50", "setting": "[13]", "value": 42, "unit": "nM"}
    ]},
    {"smiles": "Cc1sc(C(=O)N[C@@H]2[C@H](N)CCCC2(F)F)cc1-c1cnn2cc(Cl)cnc12", "values": [
      {"measurement": "IC50", "setting": "[1]", "value": 130, "unit": "nM"},
      {"measurement": "IC50", "setting": "[2]", "value": 200, "unit": "nM"},
      {"measurement": "IC50", "setting": "Aurora kinase B", "value": 4600, "unit": "nM"},
      {"measurement": "IC50", "setting": "[3]", "value": 1100, "unit": "nM"},
      {"measurement": "IC50", "setting": "[4]", "value": 17000, "unit": "nM"},
      {"measurement": "IC50", "setting": "[5]", "value": 53, "unit": "nM"},
      {"measurement": "IC50", "setting": "[6]", "value": 1600, "unit": "nM"},
      {"measurement": "IC50", "setting": "[7]", "value": 62, "unit": "nM"},
      {"measurement": "IC50", "setting": "[8]", "value": 1100, "unit": "nM"},
      {"measurement": "IC50", "setting": "[9]", "value": "> 100000", "unit": "nM"},
      {"measurement": "IC50", "setting": "SRSF protein kinase 1", "value": 12000, "unit": "nM"},
      {"measurement": "IC50", "setting": "[10]", "value": 1100, "unit": "nM"},
      {"measurement": "IC50", "setting": "[11]", "value": 670, "unit": "nM"},
      {"measurement": "IC50", "setting": "[12]", "value": 1500, "unit": "nM"},
      {"measurement": "IC50", "setting": "[13]", "value": 8100, "unit": "nM"}
    ]},
    {"smiles": "O=C(NCC(F)(F)F)c1cc(-c2cnn3cc(-c4ccc(OCCN5CCCCC5)cc4)cnc23)cs1", "values": [
      {"measurement": "IC50", "setting": "[1]", "value": "< 10", "unit": "nM"},
      {"measurement": "IC50", "setting": "[2]", "value": 57, "unit": "nM"},
      {"measurement": "IC50", "setting": "Aurora kinase B", "value": 33, "unit": "nM"},
      {"measurement": "IC50", "setting": "[3]", "value": 550, "unit": "nM"},
      {"measurement": "IC50", "setting": "[4]", "value": 3900, "unit": "nM"},
      {"measurement": "IC50", "setting": "[5]", "value": "< 10", "unit": "nM"},
      {"measurement": "IC50", "setting": "[6]", "value": 590, "unit": "nM"},
      {"measurement": "IC50", "setting": "[7]", "value": 14, "unit": "nM"},
      {"measurement": "IC50", "setting": "[8]", "value": 7200, "unit": "nM"},
      {"measurement": "IC50", "setting": "[9]", "value": 1200, "unit": "nM"},
      {"measurement": "IC50", "setting": "SRSF protein kinase 1", "value": "> 100000", "unit": "nM"},
      {"measurement": "IC50", "setting": "[10]", "value": 1900, "unit": "nM"},
      {"measurement": "IC50", "setting": "[11]", "value": 5300, "unit": "nM"},
      {"measurement": "IC50", "setting": "[12]", "value": 88, "unit": "nM"},
      {"measurement": "IC50", "setting": "[13]", "value": 37, "unit": "nM"}
    ]},
    {"smiles": "Cn1cc(-c2cnc3c(-c4csc(C(=O)N[C@@H]5CCCC[C@@H]5N)c4)cnn3c2)cn1", "note": "(racemic)", "values": [
      {"measurement": "IC50", "setting": "[1]", "value": 3.2, "unit": "nM"},
      {"measurement": "IC50", "setting": "[2]", "value": 2.2, "unit": "nM"},
      {"measurement": "IC50", "setting": "Aurora kinase B", "value": 28, "unit": "nM"},
      {"measurement": "IC50", "setting": "[3]", "value": 19, "unit": "nM"},
      {"measurement": "IC50", "setting": "[4]", "value": 250, "unit": "nM"},
      {"measurement": "IC50", "setting": "[5]", "value": 4.6, "unit": "nM"},
      {"measurement": "IC50", "setting": "[6]", "value": 2800, "unit": "nM"},
      {"measurement": "IC50", "setting": "[7]", "value": 3.1, "unit": "nM"},
      {"measurement": "IC50", "setting": "[8]", "value": 120, "unit": "nM"},
      {"measurement": "IC50", "setting": "[9]", "value": 1400, "unit": "nM"},
      {"measurement": "IC50", "setting": "SRSF protein kinase 1", "value": 140, "unit": "nM"},
      {"measurement": "IC50", "setting": "[10]", "value": 40, "unit": "nM"},
      {"measurement": "IC50", "setting": "[11]", "value": 260, "unit": "nM"},
      {"measurement": "IC50", "setting": "[12]", "value": 8, "unit": "nM"},
      {"measurement": "IC50", "setting": "[13]", "value": 3, "unit": "nM"}
    ]}
  ]
}
